# Values quoted from earlier work in US9326976B2, “Carbamate derivatives” (CHIESI FARMACEUTICI S.P.A., priority 2014, dated 2016).
# System: COPD patients
# [1] = patients with severe disease, frequent exacerbations and mucus hypersecretion
structure (smiles),measurement,setting,value
O=C(Nc1c(Cl)cncc1Cl)c1ccc(OC(F)F)c(OCC2CC2)c1 [roflumilast],reduction of the numbers of neutrophils in sputum,"COPD patients, oral, given over 4 weeks",36%
same,improvement of FEV 1,[1],approximately 50 mL
same,reduction of exacerbation,[1],about 15%
